Laboratory results published in the supplement of paper PMC10307832.

How the values were obtained:
Assay in all cases: relative viability (nuclei count vs DMSO), 5 days (fraction); higher = more cells survive
MIM1 = compound: CC1=CSC(=NC2CCCCC2)N1/N=C/C3=C(C(=C(C=C3)O)O)O [MIM1]
Method in brief: (§1)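 Vehicle-anchored 1536-well plates of lung cancer cell lines, held overnight at 37 °C, were pinned with five library-drug doses (not always all listed) spaced by √10. No medium change followed over the next 5 days, after which the cells were fixed, permeabilised and Hoechst-stained together and imaged at 4×. Nuclei were counted with MetaXpress, and viability is treated-well nuclei over vehicle-well nuclei, taken as a median across plates. Plates passed with control CV below 25% and at least one doubling.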

Luminespib = compound: CCNC(=O)c1noc(-c2cc(C(C)C)c(O)cc2O)c1-c1ccc(CN2CCOCC2)cc1 [Luminespib]
Method in brief: as §1

Saracatinib = compound: CN1CCN(CCOc2cc(OC3CCOCC3)c3c(Nc4c(Cl)ccc5c4OCO5)ncnc3c2)CC1 [Saracatinib]
Method in brief: as §1

Nilotinib = compound: Cc1cn(-c2cc(NC(=O)c3ccc(C)c(Nc4nccc(-c5cccnc5)n4)c3)cc(C(F)(F)F)c2)cn1 [Nilotinib]
Method in brief: as §1

Lenalidomide = compound: Nc1cccc2c1CN(C1CCC(=O)NC1=O)C2=O [Lenalidomide]
Method in brief: as §1

Row | Cell Line | relative viability (MIM1; 0.2 µM) | relative viability (MIM1; 0.6325 µM) | relative viability (MIM1; 2 µM) | relative viability (MIM1; 6.325 µM) | relative viability (MIM1; 20 µM) | relative viability (Luminespib; 0.002 µM) | relative viability (Luminespib; 0.006325 µM) | relative viability (Luminespib; 0.01 µM, anchor plate) | relative viability (Luminespib; 0.02 µM) | relative viability (Luminespib; 0.06325 µM) | relative viability (Luminespib; 0.2 µM) | relative viability (Saracatinib; 0.02 µM) | relative viability (Saracatinib; 0.2 µM) | relative viability (Saracatinib; 0.6325 µM) | relative viability (Saracatinib; 2 µM) | relative viability (Nilotinib; 0.003162 µM) | relative viability (Nilotinib; 0.01 µM) | relative viability (Nilotinib; 0.03162 µM) | relative viability (Nilotinib; 0.1 µM) | relative viability (Lenalidomide; 0.253 µM) | relative viability (Lenalidomide; 0.8 µM) | relative viability (Lenalidomide; 2.53 µM) | relative viability (Lenalidomide; 8 µM) | relative viability (Nilotinib; 0.001 µM)
1 | 201T | 1 | 1 | 0.987 | 0.555 | 0.483 | 0.973 | 0.896 | 1.06 | 0.88 | 0.969 | 0.295 | 0.99 | 0.826 | 0.923 | 0.722 | 1.11 | 0.979 | 1.02 | 0.47 | 0.985 | 0.835 | 1.01 | 0.96 | 
2 | A549 | 0.967 | 0.933 | 0.946 | 0.782 | 0.333 | 1.04 | 0.923 |  | 0.432 | 0.085 | 0.0435 | 1.04 | 0.81 | 1.09 | 0.898 | 1.21 | 1.1 | 0.739 | 0.665 | 0.986 | 0.97 | 1.13 | 0.954 | 0.948
3 | A-427 | 1.05 | 0.746 | 0.973 | 0.783 | 0.218 | 1.06 | 0.906 | 1.03 | 0.793 | 0.395 | 0.244 | 1.03 | 0.904 | 0.935 | 0.924 | 1.06 | 1.08 | 0.871 | 0.182 | 1.04 | 0.979 | 1.15 | 0.918 | 0.955
4 | ABC-1 | 0.902 | 1.15 | 0.9 | 0.485 | 0.264 | 0.993 | 0.865 | 0.718 | 0.63 | 0.239 | 0.2 | 0.942 | 0.811 | 1 | 0.899 | 0.907 | 1.05 | 0.78 | 0.322 | 1.01 | 0.774 | 0.993 | 0.825 | 1
5 | BEN | 1.02 | 0.914 | 1.01 | 0.853 | 0.323 | 0.944 | 0.925 | 0.383 | 0.442 | 0.656 | 0.355 | 1.11 | 0.755 | 1.05 | 0.759 | 1.03 | 0.929 | 0.926 | 0.786 | 1.09 | 0.892 | 1.12 | 0.731 | 0.876
6 | CAL-12T | 1.05 | 0.819 | 0.92 | 0.708 | 0.434 | 1.03 | 0.933 | 0.47 | 0.591 | 0.136 | 0.13 | 1.06 | 0.996 | 1.14 | 0.903 | 0.91 |  | 0.688 | 0.654 | 0.979 | 1.04 | 1.27 | 1.16 | 0.928
7 | COR-L23 | 0.995 | 1.11 | 1.01 | 0.77 | 0.424 | 1.14 | 0.913 | 0.672 | 0.925 | 0.091 | 0.0907 | 1.05 | 0.856 | 0.905 | 0.975 | 1.34 | 1.2 | 0.704 | 0.768 | 1.01 | 0.957 | 1.2 | 1.22 | 0.877
8 | COR-L 105 | 1 | 0.878 | 0.986 | 0.769 | 0.412 | 0.873 | 0.913 | 0.822 | 0.627 | 0.232 | 0.24 | 1.08 | 0.868 | 0.769 | 0.542 | 0.915 | 1.13 | 0.87 | 0.845 | 0.976 | 0.971 | 1.05 | 1.01 | 1.11
9 | Calu-6 | 1.03 | 0.928 | 0.967 | 0.444 | 0.242 | 1.03 | 0.892 |  | 0.899 | 0.136 | 0.122 | 0.923 | 0.902 | 0.926 | 0.755 | 1.07 | 1.09 | 0.781 | 0.891 | 0.973 | 1.02 | 1.09 | 1.02 | 0.937
10 | ChaGo-K-1 | 0.995 | 0.896 | 0.971 | 0.738 | 0.235 | 1.07 | 1.01 | 0.666 | 0.978 | 0.816 | 0.335 | 0.992 | 0.807 | 1.05 | 0.927 | 1.16 | 1.11 | 0.789 | 0.532 | 0.946 | 1.05 | 1.04 | 1.01 | 0.926
11 | EBC-1 | 1.02 | 0.995 | 0.981 | 0.682 | 0.471 | 0.984 | 0.877 |  | 0.326 | 0.128 | 0.142 | 1.1 | 0.933 | 1.11 | 1.08 | 1.16 | 1.1 | 0.679 | 0.725 | 1.03 | 1.04 | 1.1 | 0.955 | 0.818
12 | EKVX | 0.94 | 1 | 0.881 | 0.604 | 0.511 | 0.956 | 0.724 | 0.851 | 0.655 | 0.878 | 0.356 | 1.03 | 0.738 | 0.966 | 0.631 | 1.16 | 1.15 | 0.854 | 0.659 | 0.988 | 0.803 | 1.05 | 0.846 | 0.823
13 | EMC-BAC-2 | 1.03 | 0.727 | 0.968 | 0.816 | 0.296 | 1 | 0.553 | 1.18 | 0.648 | 0.665 | 0.302 | 0.952 | 0.943 | 0.856 | 0.763 | 0.915 | 0.956 | 0.857 | 0.731 | 1.15 | 0.863 | 1 | 0.493 | 0.951
14 | EPLC-272H | 0.969 | 0.888 | 0.934 | 0.593 | 0.162 | 0.82 | 0.887 | 0.301 | 0.557 | 0.496 | 0.123 | 0.974 | 0.881 | 1.09 | 0.786 | 0.94 | 0.92 | 0.676 | 0.37 | 1.11 | 0.741 | 1.07 | 0.754 | 0.894
15 | H3255 | 0.952 | 0.882 | 0.891 | 0.724 | 0.35 | 0.969 | 0.808 | 0.933 | 0.702 | 0.834 | 0.346 | 1.04 | 0.851 | 0.989 | 0.348 | 0.971 |  | 0.877 | 0.907 | 0.983 | 0.969 | 1.05 | 0.882 | 0.937
16 | HARA | 0.903 | 0.961 | 0.998 | 0.365 | 0.225 | 0.862 | 0.784 | 0.834 | 0.878 | 0.783 | 0.131 | 0.979 | 0.852 | 1.14 | 0.561 | 0.981 | 0.948 | 0.647 | 0.569 | 1.11 |  | 1.13 | 1.05 | 0.983
17 | HCC-15 | 0.997 | 0.717 | 1.08 | 0.425 | 0.105 | 0.967 | 0.923 | 0.388 | 0.943 | 0.33 | 0.128 | 0.982 | 0.888 | 1.07 | 0.99 | 1.18 | 1.15 | 0.761 | 0.496 | 1.02 | 0.877 | 1.21 | 0.854 | 0.909
18 | HCC-44 | 1.01 | 0.969 | 0.661 | 0.604 | 0.203 | 0.969 | 1.01 | 1.09 | 0.997 | 0.55 | 0.225 | 1.06 | 0.878 | 1.04 | 1.03 | 0.921 | 0.93 | 0.949 | 0.722 | 1.01 | 0.68 | 0.992 | 0.78 | 1
19 | HCC-78 | 1.07 | 0.549 | 0.888 | 0.677 | 0.424 | 0.869 | 0.72 |  |  | 0.999 | 0.4 | 0.956 | 0.815 | 1.08 | 0.834 | 0.937 | 1.07 | 0.84 | 0.746 | 0.885 | 0.861 | 0.957 | 0.618 | 1.06
20 | HCC-366 | 0.991 |  | 0.973 | 0.216 | 0.0492 | 0.988 | 0.987 |  | 0.998 | 0.0511 | 0.053 | 1.07 | 0.731 | 0.952 | 0.77 | 1.12 | 1.24 | 0.971 | 0.527 | 1.02 | 0.989 | 1.07 | 0.934 | 0.982
21 | HCC-827 | 1.01 | 0.994 | 1.03 | 0.367 | 0.39 | 1.06 | 1 | 0.647 | 0.984 | 1.03 | 0.235 | 1.02 | 0.813 | 0.366 | 0.188 | 1.09 | 1.07 | 1.03 | 1.06 | 1.04 | 0.99 | 1.05 | 1.1 | 1.02
22 | HOP-62 | 1.02 | 0.942 | 0.782 | 0.74 | 0.204 | 1.05 | 0.969 | 0.912 | 1.01 | 0.659 | 0.249 | 1.02 | 0.968 | 1.19 | 1.14 | 0.958 | 0.948 | 0.698 | 0.462 | 0.943 | 0.963 | 1.05 | 0.93 | 0.953
23 | IA-LM | 0.976 | 0.935 | 0.896 | 0.345 | 0.157 | 1.06 | 0.884 |  | 0.678 | 0.0695 | 0.0432 | 0.983 | 0.848 | 1.46 | 1 | 0.793 | 1.07 | 0.789 | 0.909 | 0.985 | 0.859 | 1.05 | 0.942 | 0.835
